Consider one compound from US20040077634A1, “Treatment of diseases characterized by excessive or insufficient cell death” (priority 2001, published 2004).

In assay [1] the target is T1, apoptosome complex (Apaf-1 and caspase-9) (Homo sapiens, UniProt O14727+P55211).
T1 construct: Caspase-9 antibody precipitated practically all caspase-9 present in the cell extract; endogenous in cells; host or cells: cell extract
T1 sequence (O14727 1-1248): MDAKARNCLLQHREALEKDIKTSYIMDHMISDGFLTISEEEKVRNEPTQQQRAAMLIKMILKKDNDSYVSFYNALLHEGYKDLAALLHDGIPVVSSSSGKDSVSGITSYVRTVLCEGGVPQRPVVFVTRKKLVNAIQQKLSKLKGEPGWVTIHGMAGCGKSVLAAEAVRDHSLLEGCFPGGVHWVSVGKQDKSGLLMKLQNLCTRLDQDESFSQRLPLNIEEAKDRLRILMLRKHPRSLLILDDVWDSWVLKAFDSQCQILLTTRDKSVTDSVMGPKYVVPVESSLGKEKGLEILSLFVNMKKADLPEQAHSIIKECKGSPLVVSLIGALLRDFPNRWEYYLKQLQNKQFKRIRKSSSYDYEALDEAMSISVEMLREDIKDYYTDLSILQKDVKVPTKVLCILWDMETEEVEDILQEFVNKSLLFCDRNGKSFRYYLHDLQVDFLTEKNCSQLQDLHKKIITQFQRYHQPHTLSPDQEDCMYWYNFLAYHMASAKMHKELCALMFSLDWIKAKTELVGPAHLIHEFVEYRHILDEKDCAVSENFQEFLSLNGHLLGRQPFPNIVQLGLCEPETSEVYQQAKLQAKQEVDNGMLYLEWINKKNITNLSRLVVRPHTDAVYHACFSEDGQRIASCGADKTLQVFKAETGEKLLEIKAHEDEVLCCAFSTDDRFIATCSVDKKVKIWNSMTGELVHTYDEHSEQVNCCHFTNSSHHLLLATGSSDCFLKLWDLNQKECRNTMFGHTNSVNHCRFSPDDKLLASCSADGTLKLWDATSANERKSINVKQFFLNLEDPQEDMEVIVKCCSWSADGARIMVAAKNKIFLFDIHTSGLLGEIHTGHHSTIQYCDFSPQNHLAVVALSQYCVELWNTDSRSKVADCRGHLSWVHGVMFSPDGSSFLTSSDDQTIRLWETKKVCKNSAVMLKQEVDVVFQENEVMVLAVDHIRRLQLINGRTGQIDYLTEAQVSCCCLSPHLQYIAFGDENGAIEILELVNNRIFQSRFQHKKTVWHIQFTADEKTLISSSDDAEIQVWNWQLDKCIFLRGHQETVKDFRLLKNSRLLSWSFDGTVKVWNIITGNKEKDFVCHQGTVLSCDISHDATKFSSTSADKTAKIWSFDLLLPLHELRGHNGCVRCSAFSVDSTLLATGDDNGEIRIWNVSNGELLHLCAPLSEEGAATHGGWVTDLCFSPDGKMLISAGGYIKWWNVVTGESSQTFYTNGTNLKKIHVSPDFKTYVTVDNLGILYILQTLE
T1 sequence (P55211 1-416): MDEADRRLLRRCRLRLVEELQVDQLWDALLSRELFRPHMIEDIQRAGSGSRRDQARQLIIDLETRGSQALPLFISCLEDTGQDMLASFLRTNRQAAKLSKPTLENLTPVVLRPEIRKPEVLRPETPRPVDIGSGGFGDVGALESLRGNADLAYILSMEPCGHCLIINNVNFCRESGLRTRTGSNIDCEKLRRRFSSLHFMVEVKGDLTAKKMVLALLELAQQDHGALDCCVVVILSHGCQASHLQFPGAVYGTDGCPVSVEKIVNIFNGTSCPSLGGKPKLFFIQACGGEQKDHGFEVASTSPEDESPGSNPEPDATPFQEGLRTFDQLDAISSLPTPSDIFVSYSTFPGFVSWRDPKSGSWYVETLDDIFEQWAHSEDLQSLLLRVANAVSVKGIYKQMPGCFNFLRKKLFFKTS
The assay is described as follows: Apoptosome formation: co-immunoprecipitation of Apaf-1 with caspase-9 in cell extract. The following applies: 100 μM. The class given is binding. On the procedure:
Next, it was tested whether compound f interferes with the formation of apoptosome complex in response to Cc/dATP. Cell extracts were incubated with Cc/dATP in the presence or absence of 100 μM compound f or 1 μM zVAD-fmk for 1 hour prior to the immunoprecipitation (IP) of caspase-9. […] Hsp90, which has been proposed to associate with Apaf-1 and prevent oligomerization and caspase-9 recruitment, was not co-immunoprecipitated with caspase-9.

For a further assay, the target named is T2, recombinant caspase-9 (Homo sapiens, UniProt P55211).
T2 sequence (P55211 1-315 limits assumed): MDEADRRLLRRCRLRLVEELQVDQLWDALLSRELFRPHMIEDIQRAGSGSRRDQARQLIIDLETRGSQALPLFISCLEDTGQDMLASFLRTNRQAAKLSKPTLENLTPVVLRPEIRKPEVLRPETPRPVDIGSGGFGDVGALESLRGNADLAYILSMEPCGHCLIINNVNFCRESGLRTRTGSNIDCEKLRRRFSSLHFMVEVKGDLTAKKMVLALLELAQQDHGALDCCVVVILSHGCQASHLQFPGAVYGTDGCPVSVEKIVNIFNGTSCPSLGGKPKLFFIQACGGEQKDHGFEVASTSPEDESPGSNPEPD
T2 sequence (P55211 331-416 limits assumed): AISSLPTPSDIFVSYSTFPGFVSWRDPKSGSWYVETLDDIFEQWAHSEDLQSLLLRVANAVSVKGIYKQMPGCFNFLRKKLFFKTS
Nature of the assay: Recombinant caspase-9 activity, cleavage of LEHD-AFC. Type of assay: biochemical. The following applies: 25 to 100 μM; LEHD-AFC substrate. On the procedure: The inhibition of the DEVDase activity in the in vitro caspase activation system could be due to a direct inhibition of caspase-9, -3, or -7 activities, or to the inhibition of the apoptosome formation. To test if compounds a, f, and g were specific caspase inhibitors, recombinant caspase-3 and caspase-9 were incubated with the three compounds and the enzymatic activities of caspases were monitored by analysing the cleavage of the caspase-3 substrate DEVD-AFC or the caspase-9 substrate LEHD-AFC, respectively.

Assay [2] has as its system caspase-3-like proteases in MCF-casp3 cells. The assay is described as follows: TNF-induced DEVDase activity in MCF-casp3 cells. The class given is cell-based. The following applies: TNF 5 ng/ml, 50 μM.
Experimental: (§1) The ability of compound f to inhibit cell death was examined in MCF-neo and MCF-casp3 cells. […] To analyse the mechanism of the action of compound f in alive cells, MCF-casp3 cells were treated with TNF (5 ng/ml) in the presence of 50 μM compound f and the activity of caspase-3-like proteases was measured by a DEVDase enzyme assay.
The subject of assay [3] is WEHI-S fibrosarcoma cells. The assay is described as follows: TNF-induced caspase-independent cell death of WEHI-S fibrosarcoma cells. Type of assay: cell-based. The following applies: 50-10 μM.
Another assay concerns MCF-neo cells. The assay is described as follows: TNF-induced cell death of MCF-neo cells. The class given is cell-based.

Experimental for MCF-neo cells: as §1

For the compound `O=C(Nc1cccc(C(F)(F)F)c1)Nc1cc(Cl)ccc1C(=O)O` [Compound f, [N-(2-Carboxy-5-chlorophenyl)-N′-(3-trifluoromethylphenyl)]urea], the “ability of the caspase-9 antibody to precipitate caspase-9” value in assay [1] is listed as “no effect”. In addition, the “co-immunoprecipitation of Apaf-1 and caspase-9” value in assay [1] (1 hour with Cc/dATP prior to IP of caspase-9) was “significantly inhibited”. On recombinant caspase-9, the “inhibition of recombinant caspase-9 activity” value was “failed to inhibit”. Further, the “TNF-induced DEVDase activity” value in assay [2] is on record as “significantly reduced”. Also, in assay [3], the “inhibition of the TNF-induced cell death” value is given as “No inhibition”. For the same compound, the “cell death induced by TNF” value in the assay on MCF-neo cells (1 ng/ml TNF, 50 μM) is “completely blocked”. In the assay on MCF-neo cells (5 ng/ml TNF, 50 μM), the “protection against TNF-induced cell death” value is given as “protection was still significant”. In addition, the “inhibition of TNF-induced cell death” value with MCF-neo cells (10 ng/ml TNF) was “no inhibition”.
